Assays:
Aquaporin 9 (AQP9) [1] = molecular target: T1, Aquaporin 9 (AQP9) (Mus musculus, UniProt Q9JJJ3); assay: glycerol, water and H2O2 permeability in CHO cells expressing mouse AQP9 (calcein / HyPer-3 fluorescence); assay type: cell-based
T1 sequence (Q9JJJ3 1-295): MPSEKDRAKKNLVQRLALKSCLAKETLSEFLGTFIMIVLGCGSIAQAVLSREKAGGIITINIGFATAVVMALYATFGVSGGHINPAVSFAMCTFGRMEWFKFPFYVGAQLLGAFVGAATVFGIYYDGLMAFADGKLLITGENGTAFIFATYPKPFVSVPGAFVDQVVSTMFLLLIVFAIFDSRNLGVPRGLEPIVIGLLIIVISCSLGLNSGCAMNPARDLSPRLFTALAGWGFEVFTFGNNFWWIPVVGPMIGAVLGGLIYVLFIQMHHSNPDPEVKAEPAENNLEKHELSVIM

Aquaporin 9 (AQP9) [2] = molecular target: T1, Aquaporin 9 (AQP9); assay: water and glycerol permeability in CHO cells expressing mouse AQP9 (calcein fluorescence); assay type: cell-based

Row | IC50 (Aquaporin 9 (AQP9) [1]) [nM] | IC50 (Aquaporin 9 (AQP9) [2]) [nM] | SMILES
1 | ~76 | – | CCn1c(SCC(=O)Nc2nnc(-c3ccc(OC(C)C)cc3)s2)nnc1C(C)C [RG, RG100204]
2 | – | ~720 | O=C(CCc1ccc(O)cc1)c1c(O)cc(O)cc1O [Phlor, phloretin]

Source: PMC9238327, “RG100204, A Novel Aquaporin-9 Inhibitor, Reduces Septic Cardiomyopathy and Multiple Organ Failure in Murine Sepsis” (Frontiers in Immunology, 2022)
